pEC50: −log10 of the molar value.
Tests used:
Assay type in all cases: cell-based
adenosine A2a receptor = biological target: T1, adenosine A2a receptor (Homo sapiens, UniProt P29274); experiment: Indirect determination of adenosine agonism by way of gene expression (cAMP-dependent luciferase), A2a cells; conditions: CHO cells stably transfected with A2a receptor cDNA; 50% of the maximum stimulation of luciferase
T1 construct: expressed in transfected cells; host or cells: CHO (Chinese Hamster Ovary)
Source text: (§1) B-1. Indirect Determination of the Adenosine Agonism by Way of Gene Expression
(§2) Cells of the CHO (Chinese Hamster Ovary) permanent cell line are transfected stably with the cDNA for the adenosine receptor subtypes A1, A2a and A2b. The adenosine A1 receptors are coupled to the adenylate cyclase by way of Gi proteins, while the adenosine A2a and A2b receptors are coupled by way of Gs proteins. In correspondence with this, the formation of cAMP in the cell is inhibited or stimulated, respectively. After that, expression of the luciferase is modulated by way of a cAMP-dependent promoter. The luciferase test is optimized, with the aim of high sensitivity and reproducibility, low variance and good suitability for implementation on a robot system, by varying several test parameters, such as cell density, duration of the growth phase and the test incubation, forskolin concentration and medium composition. The following test protocol is used for pharmacologically characterizing cells and for the robot-assisted substance screening:
(§3) The stock cultures are grown, at 37° C. and under 5% CO2, in DMEM/F12 medium containing 10% FCS (foetal calf serum) and in each case split 1:10 after 2-3 days. The test cultures are seeded in 384-well plates with 2000 cells per well and grown at 37° C. for approx. 48 hours. The medium is then replaced with a physiological sodium chloride solution (130 mM sodium chloride, 5 mM potassium chloride, 2 mM calcium chloride, 20 mM HEPES, 1 mM magnesium chloride hexahydrate, 5 mM sodium bicarbonate, pH 7.4). The substances to be tested, which are dissolved in DMSO, are pipetted into the test cultures (maximum final concentration of DMSO in the test mixture: 0.5%) in a dilution series of from 5×10^−11M to 3×10^−6M (final concentration). 10 minutes later, forskolin is added to the A1 cells and all the cultures are subsequently incubated at 37° C. for four hours. After that, 35 μl of a solution which is composed of 50% lysis reagent (30 mM disodium hydrogenphosphate, 10% glycerol, 3% TritonX100, 25 mM TrisHCl, 2 mM dithiotreitol (DTT), pH 7.8) and 50% luciferase substrate solution (2.5 mM ATP, 0.5 mM luciferin, 0.1 mM coenzyme A, 10 mM tricine, 1.35 mM magnesium sulphate, 15 mM DTT, pH 7.8) are added to the test cultures, which are shaken for approx. 1 minute and the luciferase activity is measured using a camera system. The EC50 values are determined, i.e., the concentrations at which 50% of the luciferase answer is inhibited in the case of the A1 cell, and, respectively, 50% of the maximum stimulation with the corresponding substance is achieved in the case of the A2b and A2a cells. […] Pharmacol., 357 (1998), 1-9).

adenosine A2b receptor = biological target: T2, adenosine A2b receptor (Homo sapiens, UniProt P29275); experiment: Indirect determination of adenosine agonism by way of gene expression (cAMP-dependent luciferase), A2b cells; conditions: CHO cells stably transfected with A2b receptor cDNA; 50% of the maximum stimulation of luciferase
T2 construct: expressed in transfected cells; host or cells: CHO (Chinese Hamster Ovary)
T2 sequence (P29275 1-332): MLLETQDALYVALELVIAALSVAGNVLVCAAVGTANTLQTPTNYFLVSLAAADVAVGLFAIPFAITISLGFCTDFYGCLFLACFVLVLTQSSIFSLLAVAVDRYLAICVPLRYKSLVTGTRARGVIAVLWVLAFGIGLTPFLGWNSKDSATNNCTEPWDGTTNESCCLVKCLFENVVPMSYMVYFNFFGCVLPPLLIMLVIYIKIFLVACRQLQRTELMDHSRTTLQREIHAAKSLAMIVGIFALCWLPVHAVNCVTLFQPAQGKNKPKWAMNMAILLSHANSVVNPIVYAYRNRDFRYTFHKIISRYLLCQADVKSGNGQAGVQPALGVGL
Source text: as §1, §2, §3

adenosine A1 receptor = biological target: T3, adenosine A1 receptor (Homo sapiens, UniProt P30542); experiment: Indirect determination of adenosine agonism by way of gene expression (cAMP-dependent luciferase), A1 cells; conditions: CHO cells stably transfected with A1 receptor cDNA; 1 μM forskolin; concentration at which 50% of the luciferase answer is inhibited
T3 construct: expressed in transfected cells; host or cells: CHO (Chinese Hamster Ovary)
T3 sequence (P30542 1-326): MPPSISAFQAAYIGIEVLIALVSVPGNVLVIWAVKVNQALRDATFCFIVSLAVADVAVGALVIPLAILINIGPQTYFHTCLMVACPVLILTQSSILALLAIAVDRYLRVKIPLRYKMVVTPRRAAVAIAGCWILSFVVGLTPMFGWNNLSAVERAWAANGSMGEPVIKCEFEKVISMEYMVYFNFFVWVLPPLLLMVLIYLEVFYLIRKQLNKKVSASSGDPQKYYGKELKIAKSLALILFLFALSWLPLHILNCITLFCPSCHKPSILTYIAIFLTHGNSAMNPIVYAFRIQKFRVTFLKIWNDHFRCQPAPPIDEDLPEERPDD
Source text: as §1, §2, §3

T1 sequence (P29274 whole entry): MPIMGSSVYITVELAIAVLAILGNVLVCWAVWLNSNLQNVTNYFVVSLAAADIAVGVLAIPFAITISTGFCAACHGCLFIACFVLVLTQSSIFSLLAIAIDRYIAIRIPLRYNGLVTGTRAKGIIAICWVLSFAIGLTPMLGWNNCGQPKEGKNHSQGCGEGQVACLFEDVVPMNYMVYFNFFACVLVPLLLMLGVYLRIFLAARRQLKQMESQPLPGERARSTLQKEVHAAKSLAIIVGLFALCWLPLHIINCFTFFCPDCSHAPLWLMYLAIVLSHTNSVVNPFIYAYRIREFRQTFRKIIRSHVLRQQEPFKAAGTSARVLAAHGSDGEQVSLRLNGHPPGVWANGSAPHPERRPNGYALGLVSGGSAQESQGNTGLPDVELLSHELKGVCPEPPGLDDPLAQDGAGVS

Row | Structure (SMILES) | pEC50 (adenosine A2a receptor) | pEC50 (adenosine A2b receptor) | EC50 (adenosine A1 receptor)
1 | N#Cc1c(N)nc(SCc2csc(Nc3ccc(F)c(Cl)c3)n2)c(C#N)c1-c1ccc(OCCO)nc1 [Example 1, 2′-Amino-6′-[({2-[(3-chloro-4-fluorophenyl)amino]-1,3-thiazol-4-yl}methyl)thio]-6-(2-hydroxyethoxy)-3,4′-bipyridine-3′,5′-dicarbonitrile] | 5.66 | 8.24 | 0.8 nM
2 | N#Cc1c(N)nc(SCc2csc(Nc3ccc(F)cc3)n2)c(C#N)c1-c1ccc(OCCO)nc1 [Example 3] | 6.91 | 8.43 | 0.2 nM
3 | N#Cc1c(N)nc(SCc2csc(Nc3cccc(F)c3)n2)c(C#N)c1-c1ccc(OCCO)nc1 [Example 5] | 6.72 | 8.07 | 0.6 nM
4 | N#Cc1c(N)nc(SCc2csc(Nc3ccc(F)c(F)c3)n2)c(C#N)c1-c1ccc(OCCO)nc1 [Example 11] | 6.82 | 8.24 | 0.4 nM
5 | N#Cc1c(N)nc(SCc2cscn2)c(C#N)c1-c1ccc(OCCO)nc1 [Example 13] | 7.68 | 8.26 | 0.09 nM
6 | N#Cc1c(N)nc(SCc2csc(-c3ccc(Cl)cc3)n2)c(C#N)c1-c1ccc(OCCO)nc1 [Example 19, 2′-Amino-6′-({[2-(4-chlorophenyl)-1,3-thiazol-4-yl]methyl}thio)-6-(2-hydroxyethoxy)-3,4′-bipyridine-3′,5′-dicarbonitrile] | 6.18 | 6.63 | 0.04 nM
7 | Cc1cc(CSc2nc(N)c(C#N)c(-c3ccc(OCCO)nc3)c2C#N)nc(Nc2ccc(F)cc2)n1 [Example 21] | < 5.52 | < 5.52 | 3.6 nM
8 | N#Cc1c(N)nc(SCc2cccc(Nc3ccncc3)n2)c(C#N)c1-c1ccc(OCCO)nc1 [Example 22] | 6.92 | 6.93 | 0.6 nM
9 | N#Cc1c(N)nc(SCc2ncon2)c(C#N)c1-c1ccc(OCCO)nc1 [Example 25] | < 5.52 | < 5.52 | 4.1 nM
10 | N#Cc1c(N)nc(SCc2coc(-c3ccc(Cl)cc3)n2)c(C#N)c1-c1ccc(OCCO)nc1 [Example 31] | 7.00 | 6.63 | 0.09 nM
11 | Cc1oc(-c2ccc(Cl)cc2)nc1CSc1nc(N)c(C#N)c(-c2ccc(OCCO)nc2)c1C#N [Example 37] | 5.76 | 5.90 | 0.3 nM
12 | N#Cc1c(N)nc(SCc2coc(-c3ccc(Cl)cc3)n2)c(C#N)c1-c1ccc(OC[C@@H](O)CO)nc1 [Example 42, 2′-Amino-6′-({[2-(4-chlorophenyl)-1,3-oxazol-4-yl]methyl}thio)-6-{[(2S)-2,3-dihydroxypropyl]-oxy}-3,4′-bipyridine-3′,5′-dicarbonitrile] | 6.45 | 6.29 | 0.09 nM
13 | N#Cc1c(N)nc(SCc2coc(-c3ccc(Cl)cc3)n2)c(C#N)c1-c1ccc(OC[C@H](O)CO)nc1 [Example 43, 2′-Amino-6′-({[2-(4-chlorophenyl)-1,3-oxazol-4-yl]methyl}thio)-6-{[(2R)-2,3-dihydroxypropyl]-oxy}-3,4′-bipyridine-3′,5′-dicarbonitrile] | 7.14 | 6.73 | 0.04 nM
14 | N#Cc1c(SCc2csc(-c3ccc(Cl)cc3)n2)nc(N2CCCC2)c(C#N)c1-c1ccc(OCCO)nc1 [Example 44, 2′-({[2-(4-Chlorophenyl)-1,3-thiazol-4-yl]methyl}thio)-6-(2-hydroxyethoxy)-6′-pyrrolidin-1-yl-3,4′-bipyridine-3′,5′-dicarbonitrile] | 6.26 | 7.02 | 0.08 nM
15 | N#Cc1c(NCCO)nc(SCc2csc(-c3ccc(Cl)cc3)n2)c(C#N)c1-c1ccc(OCCO)nc1 [Example 46] | 6.58 | 6.78 | 0.04 nM

Reference: patent publication US8653109B2, “Substituted bipyridine derivatives and their use as adenosine receptor ligands” (Bayer Intellectual Property GmbH, priority 2006, dated 2014)
